Experimental data taken from paper PMC9441068, “Novel eIF4A1 inhibitors with anti‐tumor activity in lymphoma” (Molecular Medicine, 2022).
pIC50: −log10 of the molar value.

Experiments:
Format in all cases: biochemical
[1] = molecular target: T1, human eIF4A1 (Homo sapiens, UniProt P60842); experiment: malachite green phosphate release (RNA-dependent ATPase) assay
[2] = molecular target: T1, human eIF4A1; experiment: malachite green phosphate release (RNA-dependent ATPase) assay; also Cy3/Cy5 RNA unwinding assay (IC50 […])
[3] = molecular target: T1, human eIF4A1; experiment: as above; remark: listed apart in the source

T1 sequence (P60842 2-406): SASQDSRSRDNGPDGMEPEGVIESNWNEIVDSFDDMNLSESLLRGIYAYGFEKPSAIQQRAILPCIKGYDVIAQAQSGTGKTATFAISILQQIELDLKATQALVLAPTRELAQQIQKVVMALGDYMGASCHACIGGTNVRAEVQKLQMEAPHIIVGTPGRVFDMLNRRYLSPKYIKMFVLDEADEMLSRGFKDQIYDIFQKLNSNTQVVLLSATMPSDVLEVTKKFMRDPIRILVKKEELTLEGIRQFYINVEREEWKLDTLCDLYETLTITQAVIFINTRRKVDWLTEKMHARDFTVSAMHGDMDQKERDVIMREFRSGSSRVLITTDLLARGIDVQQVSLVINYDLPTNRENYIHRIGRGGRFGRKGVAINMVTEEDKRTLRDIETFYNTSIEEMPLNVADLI

| Compound | pIC50 [1] | further results |
| --- | --- | --- |
| CC(=NNC(=O)c1nnn(-c2nonc2N)c1CSc1nncn1C)c1cccc(O)c1 [RBF98] | 5.52 | – |
| CC(=NNC(=O)c1nnn(-c2nonc2N)c1CSc1nncn1C)c1ccccc1O [RBF197] | – | pIC50 [2]: 10.26 |
| CC(=NNC(=O)c1nnn(-c2nonc2N)c1CSc1nncn1C)c1ccccc1O [RBF203] | 9.68 | – |
| Cn1cnnc1SCc1c(C(=O)NN=Cc2ccccc2O)nnn1-c1nonc1N [RBF208] | – | pIC50 [3]: 10.13 |
